Columns and labels:
[1] = Dissociation constant, pKa2 of compound for dissociation of the 3-hydroxyl group in 0.1 M KCl incubated for 1 min by UV-pH titration based spectrophotometric analysis; assay type: physicochemical
[2] = Dissociation constant, pKa1 of compound for protonation of the 4-oxo group in 0.1 M KCl incubated for 1 min by UV-pH titration based spectrophotometric analysis; assay type: physicochemical
[3] = molecular target: T1, Amine oxidase [flavin-containing] B (Homo sapiens, UniProt P27338); experiment: Inhibition of human recombinant MAO-B expressed in baculovirus infected BTI insect cells using kynuramine as substrate at 100 nM incubated for 10 mins followed by substrate addition by fluorimetric analysis relative to control
T1 sequence (P27338 whole entry): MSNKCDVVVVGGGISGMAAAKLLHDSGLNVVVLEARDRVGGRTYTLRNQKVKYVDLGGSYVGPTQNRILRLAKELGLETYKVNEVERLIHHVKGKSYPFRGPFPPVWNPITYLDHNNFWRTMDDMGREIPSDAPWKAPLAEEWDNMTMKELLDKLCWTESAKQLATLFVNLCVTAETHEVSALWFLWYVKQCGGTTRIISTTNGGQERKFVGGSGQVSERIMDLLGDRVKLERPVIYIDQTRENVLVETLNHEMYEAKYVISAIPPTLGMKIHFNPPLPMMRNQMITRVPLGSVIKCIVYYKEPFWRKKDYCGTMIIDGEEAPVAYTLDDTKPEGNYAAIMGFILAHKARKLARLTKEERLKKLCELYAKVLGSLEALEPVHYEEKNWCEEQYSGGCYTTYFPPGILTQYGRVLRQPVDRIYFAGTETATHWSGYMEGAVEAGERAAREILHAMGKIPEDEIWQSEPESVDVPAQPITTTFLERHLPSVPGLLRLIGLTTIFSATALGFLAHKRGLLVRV

[4] = Metal chelating activity assessed as Fe3+ complex formation by measuring stability constant for FeI in using pre Fe+3 complexed compound (FeCl3) in 0.1 M KCl :DMSO solution UV-pH titration based spectrophotometric analysis
[5] = Metal chelating activity assessed as Fe3+ complex formation by measuring stability constant for Fe(I)3 in using pre Fe+3 complexed compound (FeCl3) in 0.1 M KCl :DMSO solution UV-pH titration based spectrophotometric analysis
[6] = Metal chelating activity assessed as iron chelation
[7] = Metal chelating activity assessed as Fe3+ complex formation by measuring stability constant for Fe(I)2 in using pre Fe+3 complexed compound (FeCl3) in 0.1 M KCl :DMSO solution UV-pH titration based spectrophotometric analysis
[8] = molecular target: T1, Amine oxidase [flavin-containing] B; experiment: Inhibition of human recombinant MAO-B expressed in baculovirus infected BTI insect cells using kynuramine as substrate incubated for 10 mins followed by substrate addition by fluorimetric analysis

SMILES	pKa at 1 min [1]	pKa at 1 min [2]	inhibition at 0.1 µM [3] [%]	log(activity) [4]	log(activity) [5]	pFe3+ [6]	log(activity) [7]	IC50 [8] [nM]
COc1ccc2cc(C(=O)NCCn3ccc(=O)c(O)c3)c(=O)oc2c1	8.74	3.07	31.3	12.9	31.9	18.3	23.4	
COc1ccc(COc2ccc3cc(C(=O)NCCn4ccc(=O)c(O)c4C)c(=O)oc3c2)cc1	9.77	3.24	47.6	14.1	33.3	17	24.8	143
Cc1cccc(COc2ccc3cc(C(=O)NCCn4ccc(=O)c(O)c4C)c(=O)oc3c2)c1	9.72	3.27	44.6	14.2	35.2	18.8	24.4	144
Cc1c(O)c(=O)ccn1CCC(=O)Nc1cc2ccccc2oc1=O	9.48	3.29	43.5	13.8	33.3	17.6	24.8	160
Cc1c(O)c(=O)ccn1CCNC(=O)c1cc2ccc(OCc3cccc(Cl)c3)cc2oc1=O	9.56	3.26	47.4	14.4	34.5	18.6	24.9	136
Cc1c(O)c(=O)ccn1CCNC(=O)c1cc2ccc(OCc3ccc(F)cc3)cc2oc1=O	9.76	3.27	48.1	14.2	33.5	17	25.1	128
Cc1c(O)c(=O)ccn1CCNC(=O)c1cc2ccc(OCc3ccccc3)cc2oc1=O	9.7	3.25	30.1	14.1	33.2	16.9	24.9	
Cc1ccc2oc(=O)c(C(=O)NCCn3ccc(=O)c(O)c3C)cc2c1	9.67	3.33	34.8	14.1	34.1	17.9	25.4	
Cc1c(O)c(=O)ccn1CCNC(=O)c1cc2ccc(O)cc2oc1=O	9.92	2.75	29.5	13.8	34.2	17.2	25.2	
Cc1cc(=O)c(O)cn1CCNC(=O)c1cc2ccccc2oc1=O	9.05	3.3	44.8	12.9	31.8	17.3	23.3	129
Cc1c(O)c(=O)ccn1CCNC(=O)c1cc2ccc(OCc3ccc(C(F)(F)F)cc3)cc2oc1=O	9.83	3.37	47.4	14	34.9	18.1	25.1	119
Cc1c(O)c(=O)ccn1CCNC(=O)c1cc2ccccc2oc1=O	9.59	3.22	46.9	14	33.9	17.9	25	173
Cc1c(O)c(=O)ccn1CCNC(=O)c1cc2ccc(OCc3cccc(F)c3)cc2oc1=O	9.65	3.32	49.1	14.1	33.3	17.1	24.7	108
COc1ccc2cc(C(=O)NCCn3cc(O)c(=O)cc3C)c(=O)oc2c1	9.07	3.34	35.5	13.9	33	18.5	24.5	
C#CCOc1ccc2cc(C(=O)NCCn3ccc(=O)c(O)c3C)c(=O)oc2c1	9.68	3.32	20.7	14.2	34.1	17.9	25.5	143
CCCOc1ccc2cc(C(=O)NCCn3ccc(=O)c(O)c3C)c(=O)oc2c1	9.75	3.31	45.9	14.6	34.6	18.1	26	135
Cc1cccc2cc(C(=O)NCCn3ccc(=O)c(O)c3C)c(=O)oc12	9.75	3.3	44	14.4	35.2	18.7	25.8	156
Cc1c(O)c(=O)ccn1CCNC(=O)c1cc2ccc(OCc3ccc(C(C)(C)C)cc3)cc2oc1=O	9.73	3.17	45.3	14.8	36.6	20.2	26.1	122
COc1cccc2cc(C(=O)NCCn3ccc(=O)c(O)c3C)c(=O)oc12	9.55	3.22	46	14.2	34.1	18.2	25.4	111
Cc1c(O)c(=O)ccn1CCNC(=O)c1cc2ccc(OCc3cc(F)ccc3F)cc2oc1=O	9.74	3.2	49.1	14.1	33.6	17.2	24.9	115
Cc1c(O)c(=O)ccn1CCNC(=O)c1cc2cccc(OCc3ccccc3)c2oc1=O	9.58	3.28	46.5	14	32.9	17.2	25.4	131
Cc1c(O)c(=O)ccn1CCNC(=O)c1cc2ccc(OCc3ccccc3[N+](=O)[O-])cc2oc1=O	9.74	3.24	50.6	15.1	34.6	18.2	25.9	98.6
Cc1c(O)c(=O)ccn1CCNC(=O)c1cc2ccc(OCc3cc(F)cc(F)c3)cc2oc1=O	9.78	3.25	47.4	14.3	33.5	16.9	25	125
Cc1c(O)c(=O)ccn1CCNC(=O)c1cc2cccc(O)c2oc1=O	9.98	3.35	46.2	14.4	34.8	17.6	26	158
Cc1c(O)c(=O)ccn1CCNC(=O)c1cc2ccc(OCc3ccc(C(C)C)cc3)cc2oc1=O	9.79	3.18	45.7	14.6	35.6	19	25.6	117
COc1ccc2oc(=O)c(C(=O)NCCn3ccc(=O)c(O)c3C)cc2c1	9.58	3.27	38.5	14.2	32.8	17.1	25.3	
Cc1c(O)c(=O)ccn1CCNC(=O)c1cc2cc(OCc3ccccc3)ccc2oc1=O	9.32	3.25	47.7	13.7	32	16.9	24.3	100
Cc1c(O)c(=O)ccn1C [DEFERIPRONE]	9.78 to 9.84	3.61 to 3.67		14.4 to 15.1	34.2 to 37.4	20.7	25.7 to 27.4	
Cc1c(O)c(=O)ccn1CCNC(=O)c1cc2ccc(OCC3CCCCC3)cc2oc1=O	9.76	3.29	44.6	14.3	34.7	18.1	25.1	

— ChEMBL document CHEMBL4622885, “Rational design, synthesis and biological evaluation of novel multitargeting anti-AD iron chelators with potent MAO-B inhibitory and antioxidant activity” (Bioorg Med Chem, 2020)
